Source: patent publication US6365572B1, “Low molecular weight peptide derivatives as inhibitors of the laminin/nidogen interaction” (Aventis Pharma Deutschland GmbH, priority 1999, dated 2002)
Where two headings read alike, the source gives them in different places. Non-standard residues stand in square brackets, D forms with d. Residues, ends and D or L forms follow the SMILES beside them. *: point of attachment. Bip = N[C@@H](Cc1ccc(-c2ccccc2)cc1)C(=O)O; 1Nal = N[C@@H](Cc1cccc2ccccc12)C(=O)O; 2Nal = N[C@@H](Cc1ccc2ccccc2c1)C(=O)O; Bta = N[C@@H](Cc1csc2ccccc12)C(=O)O; NH(3-hydroxypropyl) = OCCCN*

Target: T1, laminin/nidogen interaction (laminin P1, recombinantly produced human nidogen) (Homo sapiens, UniProt P14543)
T1 construct: made in house; host or cells: HEK-293
T1 sequence (P14543 29-1247): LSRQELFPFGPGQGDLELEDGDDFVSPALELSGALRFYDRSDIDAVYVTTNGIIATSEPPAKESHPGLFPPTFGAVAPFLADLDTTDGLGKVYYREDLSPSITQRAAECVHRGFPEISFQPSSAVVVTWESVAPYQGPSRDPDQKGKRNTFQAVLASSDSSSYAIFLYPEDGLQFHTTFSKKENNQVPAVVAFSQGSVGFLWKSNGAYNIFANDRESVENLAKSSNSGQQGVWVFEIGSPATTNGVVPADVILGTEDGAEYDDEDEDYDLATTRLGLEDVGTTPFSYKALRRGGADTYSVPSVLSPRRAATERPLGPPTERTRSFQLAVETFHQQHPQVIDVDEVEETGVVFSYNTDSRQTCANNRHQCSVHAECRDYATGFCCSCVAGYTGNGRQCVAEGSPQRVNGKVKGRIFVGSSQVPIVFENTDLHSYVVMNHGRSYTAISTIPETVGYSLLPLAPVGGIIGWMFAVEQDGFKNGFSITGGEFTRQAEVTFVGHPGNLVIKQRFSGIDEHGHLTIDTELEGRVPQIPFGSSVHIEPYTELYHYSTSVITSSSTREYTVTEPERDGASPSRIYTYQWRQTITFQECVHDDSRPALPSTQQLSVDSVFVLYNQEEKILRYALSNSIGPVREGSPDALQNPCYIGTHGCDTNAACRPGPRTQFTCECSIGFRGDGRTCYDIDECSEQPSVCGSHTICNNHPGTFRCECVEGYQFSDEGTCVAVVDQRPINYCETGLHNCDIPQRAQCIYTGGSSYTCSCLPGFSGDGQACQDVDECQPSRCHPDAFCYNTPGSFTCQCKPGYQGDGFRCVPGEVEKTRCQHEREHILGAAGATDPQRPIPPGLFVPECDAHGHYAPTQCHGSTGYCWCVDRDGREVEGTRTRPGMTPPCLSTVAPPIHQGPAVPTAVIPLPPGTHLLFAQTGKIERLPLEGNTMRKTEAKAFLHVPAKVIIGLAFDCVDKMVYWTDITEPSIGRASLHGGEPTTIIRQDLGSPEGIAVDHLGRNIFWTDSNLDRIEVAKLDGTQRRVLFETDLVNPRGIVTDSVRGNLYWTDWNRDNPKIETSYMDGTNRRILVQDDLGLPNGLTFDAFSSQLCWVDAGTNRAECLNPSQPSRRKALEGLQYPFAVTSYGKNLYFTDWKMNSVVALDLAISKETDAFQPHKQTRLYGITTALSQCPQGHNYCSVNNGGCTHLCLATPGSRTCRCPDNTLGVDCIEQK
Assay: HTS screening assay (time-resolved fluorescence), inhibition of laminin/nidogen binding
Conditions: read-out: IC50
Description: 5) The compound stocks were preincubated with nidogen (10 μl compound stock to 90 μl nidogen solution) and the assay was performed as described in the attached protocol, yielding a final screening concentration of 2.7 μM per compound. The isolation of laminin P1 from human placenta, human nidogen from transfected HEK-293 cells and mouse laminin γ1III 3-5 from HEK-293 cells is described in WO 98/31709. 3.1.1. HTS screening assay (highly sensitive assay variant): Time-Resolved Fluorescence Assay Coating of test tubes Microtiter plates (for example FluoroNunc®) were coated with 75 μl of a 0.1 μg/ml solution of laminin P1 (in 0.159 g of Na2CO3, 0.293 g of NaHCO3, 0.02 g of NaN3/liter, pH 9.2) at room temperature for 1 hour. The solution was then tipped off, and free binding sites were blocked by incubation with 0.5% BSA (in 7.9 g of NaCl, 1.2 g of Na2HPO4, 0.31 g of KCl, 0.23 g of NaH2PO4, 0.04% Tween 20/liter, pH 7.2) at room temperature for 0.5 hour. Completion of the blocking reaction was followed by decantation of the solution and washing once with 250 μl of washing buffer (PBS/0.04% Tween). Sequential inhibition In parallel with the coating, a preincubation of 85-100 μl of a 0.25 nM nidogen solution (recombinantly produced human nidogen) with inhibitor or standard was carried out in a separate reaction vessel (1 hour at room temperature in 7.9 g of NaCl, 1.2 g of Na2HPO4, 0.31 g of KCl, 0.23 g of NaH2PO4, 0.04% Tween 20/liter, 0.5% BSA, pH 7.2). 75 μl of the preincubation (nidogen+inhibitor or standard) were transferred into the coated wells of the microtiter plate and incubated at room temperature for 1 hour. This was followed by washing twice with PBS/0.04% Tween. Detection of the bound nidogen took place by incubation (at room temperature) for 1 hour with 75 μl of a specific antibody preparation obtained from yolks of eggs from a chicken immunized with human nidogen. The IgY fraction was used in a dilution of 1:500 in PBS/0.04% Tween. The complex of nidogen and specifically bound antibodies was, after washing twice with PBS/0.04% Tween, detected by adding anti-chicken IgY-biotin (75 μl of a 1:2500 dilution; Promega, Madison, Wis. 53711, 608-274-4330). An incubation time of 1 hour and washing twice with PBS/0.04% Tween were followed for this purpose by incubation with streptavidin-europium (Wallac; 1 hour at room temperature) and washing twice with PBS/0.04% Tween. It was finally possible, after adding 100 μl of enhancement solution (Wallac) and shaking for 5 minutes, to measure a fluorescence signal in a Victor multilabel counter using the europium protocol. The relation between the amount, of bound nidogen in the solutions with inhibitor and that of nidogen without added inhibitor was found.

[1] = results table 1.3, synthesized compounds 1 to 43
[2] = hit structures recovered from the pentamer library screening

Row | Structure (SMILES) | IC50 [1] | IC50 [2]
1 | CC(C)[C@H](NC(=O)[C@H](C)NC(=O)[C@H](CC(N)=O)NC(=O)C1[C@@H](c2ccc3ccccc3c2)CCN1C(=O)CCC(=O)O)C(N)=O (stereo in doubt) [Compound 34, Succinyl-L-(3R)-(2-naphthyl)prolyl-L-asparaginyl-L-alanyl-L-valine-amide] | 27 nM | –
2 | CC[C@H](C)[C@H](NC(=O)[C@@H](N)CC(N)=O)C(=O)N[C@@H](CC(=O)O)C(=O)N1CCC[C@H]1C(=O)N[C@@H](CC(N)=O)C(=O)N[C@@H](C)C(=O)N[C@H](C(=O)NCC(=O)NCCCO)C(C)C [Compound 1, L-Asparaginyl-L-isoleucyl-L-aspartyl-L-prolyl-L-asparaginyl-L-alanyl-L-valyl-glycine-3-hydroxypropylamide, reference compound] (H-NIDPNAVG-{NH(3-hydroxypropyl)}) | 3900 nM | –
3 | CC(C)[C@H](NC(=O)[C@H](C)NC(=O)[C@H](CC(N)=O)NC(=O)[C@@H]1CCCN1C(=O)[C@@H](N)CC(=O)O)C(=O)NCC(=O)NCCCO [Compound 2, L-Aspartyl-L-prolyl-L-asparaginyl-L-alanyl-L-valyl-glycine-3-hydroxypropylamide, reference compound] (H-DPNAVG-{NH(3-hydroxypropyl)}) | 7700 nM | –
4 | CC(C)[C@H](NC(=O)[C@H](CC(=O)O)NC(=O)[C@H](CC(N)=O)NC(=O)[C@H](Cc1ccc2ccccc2c1)NC(=O)[C@@H](N)CC(=O)O)C(=O)NCC(=O)NCCCO [Compound 3, L-Aspartyl-L-3-(2-naphthyl)alanyl-L-asparaginyl-L-aspartyl-L-valyl-glycine-3-hydroxypropylamide] (H-D[2Nal]NDVG-{NH(3-hydroxypropyl)}) | 510 nM | 430 nM
5 | CC(C)[C@H](NC(=O)[C@H](CO)NC(=O)[C@H](CC(N)=O)NC(=O)[C@H](Cc1ccc2ccccc2c1)NC(=O)[C@@H](N)CC(=O)O)C(=O)NCC(=O)NCCCO [Compound 4, L-Aspartyl-L-3-(2-naphthyl)alanyl-L-asparaginyl-L-seryl-L-valyl-glycine-3-hydroxypropylamide] (H-D[2Nal]NSVG-{NH(3-hydroxypropyl)}) | 380 nM | 490 nM
6 | CC[C@H](C)[C@H](NC(=O)[C@H](CC(=O)O)NC(=O)[C@H](CC(N)=O)NC(=O)[C@H](Cc1ccc2ccccc2c1)NC(=O)[C@@H](N)CC(=O)O)C(=O)NCC(=O)NCCCO [Compound 6] (H-D[2Nal]NDIG-{NH(3-hydroxypropyl)}) | 1380 nM | 640 nM
7 | CC[C@H](C)[C@H](NC(=O)[C@H](CO)NC(=O)[C@H](CC(N)=O)NC(=O)[C@H](Cc1ccc2ccccc2c1)NC(=O)[C@@H](N)CC(=O)O)C(=O)NCC(=O)NCCCO [Compound 7, L-Aspartyl-L-3-(2-naphthyl)alanyl-L-asparaginyl-L-seryl-L-isoleucyl-glycine-3-hydroxypropylamide] (H-D[2Nal]NSIG-{NH(3-hydroxypropyl)}) | 600 nM | 810 nM
8 | CC[C@H](C)[C@H](NC(=O)[C@H](C)NC(=O)[C@H](CC(N)=O)NC(=O)[C@H](Cc1ccc2ccccc2c1)NC(=O)[C@@H](N)CC(=O)O)C(=O)NCC(=O)NCCCO [Compound 8, L-Aspartyl-L-3-(2-naphthyl)alanyl-L-asparaginyl-L-alanyl-L-isoleucyl-glycine-3-hydroxypropylamide] (H-D[2Nal]NAIG-{NH(3-hydroxypropyl)}) | 700 nM | 470 nM

Further lines, results first:

Row | IC50 [1] | IC50 [2] | Structure (SMILES)
9 | 750 nM | 370 nM | CC(C)[C@H](NC(=O)[C@H](C)NC(=O)[C@H](CC(N)=O)NC(=O)[C@H](Cc1ccc2ccccc2c1)NC(=O)[C@@H](N)CC(=O)O)C(=O)NCC(=O)NCCCO [Compound 5, L-Aspartyl-L-3-(2-naphthyl)alanyl-L-asparaginyl-L-alanyl-L-valyl-glycine-3-hydroxypropylamide] (H-D[2Nal]NAVG-{NH(3-hydroxypropyl)})
10 | 8250 nM | – | CC(C)[C@H](NC(=O)[C@H](C)NC(=O)[C@H](CC(N)=O)NC(=O)[C@H](Cc1cccc2ccccc12)NC(=O)[C@@H](N)CC(=O)O)C(=O)NCC(=O)NCCCO [Compound 9, L-Aspartyl-L-3-(1-naphthyl)alanyl-L-asparaginyl-L-alanyl-L-valyl-glycine-3-hydroxypropylamide] (H-D[1Nal]NAVG-{NH(3-hydroxypropyl)})
11 | 8570 nM | – | CC(C)[C@H](NC(=O)[C@H](C)NC(=O)[C@H](CC(N)=O)NC(=O)[C@H](Cc1c[nH]c2ccccc12)NC(=O)[C@@H](N)CC(=O)O)C(=O)NCC(=O)NCCCO [Compound 10, L-Aspartyl-L-tryptophanyl-L-asparaginyl-L-alanyl-L-valyl-glycine-3-hydroxypropylamide] (H-DWNAVG-{NH(3-hydroxypropyl)})
12 | 3380 nM | – | CC(C)[C@H](NC(=O)[C@H](C)NC(=O)[C@H](CC(N)=O)NC(=O)[C@H](Cc1ccccc1)NC(=O)[C@@H](N)CC(=O)O)C(=O)NCC(=O)NCCCO [Compound 11, L-Aspartyl-L-phenylalanyl-L-asparaginyl-L-alanyl-L-valyl-glycine-3-hydroxypropylamide] (H-DFNAVG-{NH(3-hydroxypropyl)})
13 | 3790 nM | – | CC(C)[C@H](NC(=O)[C@H](C)NC(=O)[C@H](CC(N)=O)NC(=O)[C@H](Cc1ccc(O)cc1)NC(=O)[C@@H](N)CC(=O)O)C(=O)NCC(=O)NCCCO [Compound 12, L-Aspartyl-L-tyrosyl-L-asparaginyl-L-alanyl-L-valyl-glycine-3-hydroxypropylamide] (H-DYNAVG-{NH(3-hydroxypropyl)})
14 | 7030 nM | – | CC(C)[C@H](NC(=O)[C@H](C)NC(=O)[C@H](CC(N)=O)NC(=O)[C@H](Cc1csc2ccccc12)NC(=O)[C@@H](N)CC(=O)O)C(=O)NCC(=O)NCCCO [Compound 13, L-Aspartyl-L-3-(3-benzothienyl)alanyl-L-asparaginyl-L-alanyl-L-valyl-glycine-3-hydroxypropylamide] (H-D[Bta]NAVG-{NH(3-hydroxypropyl)})
15 | 940 nM | – | CC(C)[C@H](NC(=O)[C@H](C)NC(=O)[C@H](CC(N)=O)NC(=O)[C@H](Cc1ccc(-c2ccccc2)cc1)NC(=O)[C@@H](N)CC(=O)O)C(=O)NCC(=O)NCCCO [Compound 14, L-Aspartyl-L-3-(4-biphenyl)alanyl-L-asparaginyl-L-alanyl-L-valyl-glycine-3-hydroxypropylamide] (H-D[Bip]NAVG-{NH(3-hydroxypropyl)})
